# System: not listed separately
# Assay: Pharmacokinetic property (t1/2) in rat
# Assay type: ADME, organism-based
# Conditions: in vivo
row,SMILES,half-life [h]
1,COc1ccc(-c2cc(=O)n(C/C=C/c3ccc(Cl)cc3)nc2-c2ccc(OC)cc2)cc1,4.9

# System: not listed separately
# Assay: Pharmacokinetic property (Tmax) in rat
# Assay type: ADME, organism-based
# Conditions: in vivo
row,SMILES,Tmax [h]
1,COc1ccc(-c2cc(=O)n(C/C=C/c3ccc(Cl)cc3)nc2-c2ccc(OC)cc2)cc1,7

# System: HL-60
# Assay: Inhibitory concentration against interleukin-1 beta production in HL-60 cells stimulated with lipopolysaccharide (LPS).
# Assay type: functional, cell-based
# Conditions: Homo sapiens
row,SMILES,IC50 [nM]
1,COc1ccc(-c2cc(=O)n(CC3CCCC3)nc2-c2ccc(OC)cc2)cc1,110
2,COc1ccc(-c2cc(=O)n(CC3CC3)nc2-c2ccc(OC)cc2)cc1,1800
3,COc1ccc(-c2cc(=O)n(Cc3ccncc3)nc2-c2ccc(OC)cc2)cc1,520
4,COc1ccc(-c2cc(=O)n(Cc3ccc(F)cc3)nc2-c2ccc(OC)cc2)cc1,150
5,COc1ccc(-c2cc(=O)n(Cc3ccccc3)nc2-c2ccc(OC)cc2)cc1,260
6,COc1ccc(-c2cc(=O)n(Cc3ccc(F)c(F)c3)nc2-c2ccc(OC)cc2)cc1,540
7,COc1ccc(-c2cc(O)nnc2-c2ccc(OC)cc2)cc1,31600
8,COc1ccc(-c2cc(=O)n(C/C=C/c3ccc(Cl)cc3Cl)nc2-c2ccc(OC)cc2)cc1,270
9,COc1ccc(-c2cc(=O)n(C/C=C/c3ccc(Cl)cc3)nc2-c2ccc(OC)cc2)cc1,100
10,COc1ccc(-c2cc(=O)n(CC(C)C)nc2-c2ccc(OC)cc2)cc1,> 100000
11,COc1ccc(-c2cc(=O)n(Cc3ccc(F)cc3F)nc2-c2ccc(OC)cc2)cc1,180
12,COc1ccc(-c2cc(=O)n(Cc3ccc(Cl)c(Cl)c3)nc2-c2ccc(OC)cc2)cc1,210
13,COc1ccc(-c2cc(=O)n(C/C=C/c3ccccc3)nc2-c2ccc(OC)cc2)cc1,620
14,COc1ccc(-c2cc(=O)n(Cc3cccnc3)nc2-c2ccc(OC)cc2)cc1,430
15,COc1ccc(-c2cc(=O)n(Cc3c(Cl)cccc3Cl)nc2-c2ccc(OC)cc2)cc1,3160
16,COc1ccc(-c2cc(=O)n(C3CC3)nc2-c2ccc(OC)cc2)cc1,7980
17,C=CCn1nc(-c2ccc(OC)cc2)c(-c2ccc(OC)cc2)cc1=O,> 100000
18,COc1ccc(-c2cc(=O)n(C)nc2-c2ccc(OC)cc2)cc1,1130
19,COc1ccc(-c2cc(=O)n(Cc3ccc(Cl)cc3Cl)nc2-c2ccc(OC)cc2)cc1,1100
20,COc1ccc(-c2cc(=O)n(Cc3c(Cl)cc(Cl)cc3Cl)nc2-c2ccc(OC)cc2)cc1,9400
21,COc1ccc(-c2cc(=O)n(C(C)C)nc2-c2ccc(OC)cc2)cc1,1320
22,COc1ccc(-c2cc(=O)n(C3CCCC3)nc2-c2ccc(OC)cc2)cc1,510
23,COc1ccc(-c2cc(=O)n(C/C=C/c3ccc(F)cc3)nc2-c2ccc(OC)cc2)cc1,170
24,COc1ccc(-c2cc(=O)n(Cc3ccc(Cl)cc3)nc2-c2ccc(OC)cc2)cc1,530
25,CCn1nc(-c2ccc(OC)cc2)c(-c2ccc(OC)cc2)cc1=O,610
26,COc1ccc(-c2cc(=O)n(Cc3ccccn3)nc2-c2ccc(OC)cc2)cc1,1480
27,COc1ccc(-c2cc(=O)n(C/C=C/c3ccc(F)cc3F)nc2-c2ccc(OC)cc2)cc1,100

# System: not listed separately
# Assay: Pharmacokinetic property (Cmax) in rat
# Assay type: ADME, organism-based
# Conditions: in vivo
row,SMILES,Cmax [ng/mL]
1,COc1ccc(-c2cc(=O)n(C/C=C/c3ccc(Cl)cc3)nc2-c2ccc(OC)cc2)cc1,316

# Species: Rattus norvegicus
# Assay: Pharmacokinetic property (AUC) in rat
# Assay type: ADME, organism-based
# Conditions: in vivo
row,SMILES,AUC [ng·h/mL]
1,COc1ccc(-c2cc(=O)n(C/C=C/c3ccc(Cl)cc3)nc2-c2ccc(OC)cc2)cc1,3900

# Reference: ChEMBL document CHEMBL1134422, “Synthesis and bioactivities of novel 5,6-bis(4-methoxyphenyl)-2H-pyridazin-3-one derivatives: inhibitors of interleukin-1 beta (IL-1beta) production” (Bioorg Med Chem Lett, 2001)
